In US6395787B1, “Ocular hypotensive lipids” (Allergan Sales, Inc., priority 2000, dated 2002):

Key:
[1] = tested on: isolated guinea pig vas deferens (EP3 receptor subtype); assay: Inhibition of field stimulated contraction of isolated guinea pig vas deferens
Description: (§1) Smooth muscle tension of isolated tissues was measured isometrically with force displacement transducers (Grass FT-03) and recorded on Grass Polygraphs (Models 7G and 79E). The organ baths contained Krebs solution maintained at 37° C. and gassed with 95% 02/5% CO2 to give a pH of 7.4. The Krebs solution had the following composition (mM): NaCl, 118.0; KCl, 4.7; KH2PO4, 1.2; CaCl2, 1.9; MgSO4, 1.18; NaHCO3, 25.0; glucose, 11.7; indomethacin, 0.001.
Activity at the prostaglandin-sensitive EP3 receptor subtype was also determined by the ability of prostanoids to inhibit the smooth muscle twitch response stimulated by an electrical current in the isolated guinea pig vas deferens. 1.5 cm portions of the guinea pig vas deferens were suspended under 1 g initial tension and allowed to equilibrate for at least 30 minutes. Tissues were then subjected to stimulation every 30 seconds by 20 volt electrical pulses. After stabilization of the twitch response, a standard dose response curve to PGE2 was performed in a cumulative fashion. Test compounds were then evaluated by performing a cumulative dose response curve. Tissues were washed-out and allowed to equilibrate for 1 hr between compounds. PGE2 was once again evaluated at the conclusion of the experiment as a standard reference. Activity was calculated as the percent inhibition of the height of the muscle twitch response.

[2] = tested on: feline iris sphincter smooth muscle; assay: Isolated cat iris sphincter smooth muscle contraction; settings: for % Maximal contractile response mean χ ± SEM: reference contraction 10^−7 M PGF2α, n = 4
Description: as §1
Adult domestic cats were sacrificed by intravenous overdose of sodium pentobarbital (Anthony, Arcadia, Calif.). The eyes were enucleated immediately and placed on ice. The iris sphincter muscle was mounted vertically under 50 to 100 mg tension in a jacketed 10 ml organ bath. A 60 min stabilization period was allowed before commencing each experiment. Activity was determined as contractile responses. Compounds were added cumulatively to the organ bath and at least 30 min was allowed for recovery, after complete wash-out, and return to baseline tension. […] No more than two compounds were tested in each tissue.

[3] = tested on: rabbit jugular vein segment; assay: Vasorelaxation of histamine precontracted rabbit jugular vein segment
Description: as §1
New Zealand albino rabbit of either sex, weighing 2-4 kg, were injected with 1000 U heparin into the marginal ear vein and then sacrificed by CO2 gas. The external jugular veins were cleared of fat and adherent connective tissue and removed. The veins were transected and each ring of 3-4 mm length was suspended between two metal hooks in a jacketed organ bath. The tissues were equilibrated for 1 hr under 0.75 g tension, which was readjusted as the tissues relaxed. Single doses of histamine, 10^−5 M then 2-3×10^−6 M, with washing after each dose, were given to contract the tissue and establish responsiveness. The TP-receptor antagonist SQ29548, (Ogletree et al. (1985) J. Pharmacol. Exp. Ther. 234 435-441) at (10^−6 M), was applied for 5 min and then histamine 2-3×10^−6 M was added to elicit the contractile response. After 30 min of pretreatment with the histamine, the relaxant response was tested by adding cumulative doses of the test compounds with 10^−8 M to 10^−7 M PGE2 at the end of each dose-response curve as a reference. A recovery period of 30-50 min was allowed after wash-out of the tissues. Relaxant activity was calculated as % of the control tone elicited by histamine.

human FP receptor = human FP receptor (Homo sapiens, UniProt P43088); assay: Ca2+ signal in CRL 1497 cells; type: cell-based; parameters: endogenous in cells; host or cells: CRL 1497 human dermal fibroblasts; Δ[Ca^2+]i mean χ ± SEM: unit not given here; settings: for Δ[Ca^2+]i mean χ ± SEM: n = 4
Sequence of human FP receptor (P43088 whole entry): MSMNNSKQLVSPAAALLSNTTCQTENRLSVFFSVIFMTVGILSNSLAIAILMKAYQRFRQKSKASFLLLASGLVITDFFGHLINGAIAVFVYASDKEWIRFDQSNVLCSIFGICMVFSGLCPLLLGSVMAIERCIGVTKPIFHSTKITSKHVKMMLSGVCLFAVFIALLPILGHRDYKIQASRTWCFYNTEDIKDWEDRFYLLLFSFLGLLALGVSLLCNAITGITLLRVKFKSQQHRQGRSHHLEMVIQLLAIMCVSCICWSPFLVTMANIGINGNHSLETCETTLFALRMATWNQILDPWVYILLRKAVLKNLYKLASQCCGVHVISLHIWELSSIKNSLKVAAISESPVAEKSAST
Description: Human CRL 1497 cells were plated in culture flasks and fed Dulbecco's modified Eagle's medium (DMEM) containing 10% fetal calf serum, 2 mM 1-glutamine, and 0.05 mg/ml gentacin (all purchased from Gibco, Grand Island, N.Y.). Cell cultures were maintained in a humidified atmosphere of 95% air, 5% CO2 and grown to confluency. Cells were removed from the culture flasks by approximately 1 min treatment with trypsin 0.05%/0.53 mM EDTA in Hanks Balanced Salt Solution (HBSS, Gibco, Grand Island, N.Y.) at 37° C. Proteolytic activity was arrested by adding 5 ml of 10% fetal bovine serum in DMEM. The cells were consecutively washed in Hank's BSS and medium containing 140 mM NaCl, […], 1 mM MgCl2, 1.5 mM CaCl2, 10 mM HEPES: TRIS, 5 mM glucose, 5 mM Na pyruvate, 0.1% bovine serum albumin at pH 7.4: Centrifugation for the washes was performed for 15 minutes at 200 g at room temperature. Cells were counted, resuspended in the above medium and incubated with 2×10^−6 M Fura 2/acetoxymethyl ester in a shaking water bath for 30 minutes at 37° C. The cells were subsequently washed in medium as above and resuspended at a concentration of 2×10^6 cells ml^−1. Aliquots of 0.5 ml cell suspension were then added to autocap microtubes to provide 10^6 cells per experimental determination of intracellular free Ca^2+ concentration ([Ca^2+]i).
Fluorescence was measured in a Perkin-Elmer LS-5 fluorescence spectrophotometer at excitation and emission wavelengths of 340 and 492 nm, respectively, with both slits at 10 nm. For each experimental determination 10^6 cells were washed (200×g for 5 min) and suspended in a 2 ml cuvette with buffer containing 120 mM NaCl, 6 mM KCl, 1 mM MgSO4, 1.5 mM CaCl2, 20 mM HEPES, 1 mg ml^−1 glucose and 1 mg ml^−1 Na pyruvate. Stirring was achieved by an overhead-mounted, paddle stirrer with the temperature maintained at 37° C. The cells were lysed with digitonin (10 μl of 100 mg ml^−1 DMSO) to obtain fmax. EGTA (100 mM) and sufficient 10N NaOH to adjust the pH to 8.5 were then successively added to obtain fmin.

EC50 ([2]; Felis catus, isolated feline iris sphincter, read-out: effective concentration (E.C.)50, contraction of cat iris sphincter smooth muscle): 58 nM
EC50 ([3]; Oryctolagus cuniculus, histamine precontracted, read-out: E.C.50, vasorelaxation of the precontracted rabbit jugular vein segment): 2000 nM
Δ[Ca^2+]i mean χ ± SEM (human FP receptor; 10^−5 M, CRL 1497 cells): 97.9 ± 10.8
Δ[Ca^2+]i mean χ ± SEM (human FP receptor; 10^−6 M, CRL 1497 cells): 45.8 ± 11.5
Δ[Ca^2+]i mean χ ± SEM (human FP receptor; 10^−7 M, CRL 1497 cells): 13.5 ± 3.9
Δ[Ca^2+]i mean χ ± SEM (human FP receptor; 10^−8 M, CRL 1497 cells): 3.4 ± 1.5
EC50 (human FP receptor; CRL 1497 human dermal fibroblasts, read-out: E.C.50, Ca2+ signal): 1590 nM
Structure (SMILES): CCCCC[C@H](O)/C=C/[C@@H]1[C@@H](C/C=C\CCCC(=O)NCCO)[C@@H](O)C[C@H]1O [PGF2α 1-ethanolamide, (5Z,8α,9α,11α,13E,15S)-9,11,15-trihydroxy-N-(2-hydroxyethyL)prosta-5,13-dien-1-amide]
inhibiting field stimulation evoked contraction [1]: modestly effective
% Maximal contractile response mean χ ± SEM ([2]; 10^−5 M): 126.0 ± 3.6%
% Maximal contractile response mean χ ± SEM ([2]; 10^−6 M): 119.2 ± 6.0%
% Maximal contractile response mean χ ± SEM ([2]; 10^−7 M): 77 ± 5.5%
% Maximal contractile response mean χ ± SEM ([2]; 10^−8 M): 2.7 ± 1.7%
threshold concentration ([2]; isolated feline iris sphincter contraction): ~10 nM
endothelium dependent vasorelaxation ([3]; histamine precontracted rabbit jugular vein segment): relatively little activity
difference in potency at the human FP receptor vs PGF2α (human FP receptor; CRL 1497 cells, Ca2+ signal): about a one hundred fold difference in potency
